PMC8815882, “Screening the pandemic response box identified benzimidazole carbamates, Olorofim and ravuconazole as promising drug candidates for the treatment of eumycetoma” (PLoS Neglected Tropical Diseases, 2022)
“And” between values parts separate entries of the source, which are not always exact repeats. Equal entries are not always repeated. Where two headings read alike, the source gives them in different places.

Tested on: M. mycetomatis genome strain MM55
Test: CLSI M38-A2 based in vitro susceptibility screening (XTT or resazurin), growth at fixed concentration
Assay type: cell-based, Madurella mycetomatis
Details: for activity at 25 µM / activity at 100 µM / Percent fungal survival at 100 µM: Madurella mycetomatis; for Percent fungal survival at 100 µM: replicate 2, M. mycetomatis MM55, read-out: Percentage survival at 100um, 100 uM A (second replicate column)
[1] = 25 uM, mean of replicates, read-out: Percentage survival at 25um, 25 uM mean
[2] = 25 uM, replicate A, read-out: Percentage survival at 25um, 25 um A
[3] = 25 uM, replicate B, read-out: Percentage survival at 25um, 25 uM B
[4] = 25 uM, replicate C, read-out: Percentage survival at 25um, 25 uM C
[5] = 100 uM, mean of replicates, read-out: Percentage survival at 100um, 100 uM mean
[6] = 100 uM, replicate 1, read-out: Percentage survival at 100um, 100 uM A
[7] = 100 uM, replicate 2, read-out: Percentage survival at 100um, 100 uM A
[8] = 100 uM, replicate 3, read-out: Percentage survival at 100um, 100 uM A
[9] = 25 uM, mean of three, M. mycetomatis MM55, read-out: Percentage survival at 25um, 25 uM mean
[10] = 25 uM, replicate A, M. mycetomatis MM55, read-out: Percentage survival at 25um, 25 um A
[11] = 25 uM, replicate B, M. mycetomatis MM55, read-out: Percentage survival at 25um, 25 uM B
[12] = 25 uM, replicate C, M. mycetomatis MM55, read-out: Percentage survival at 25um, 25 uM C
[13] = 100 uM, mean of three, M. mycetomatis MM55, read-out: Percentage survival at 100um, 100 uM mean
[14] = 100 uM, replicate 1, M. mycetomatis MM55, read-out: Percentage survival at 100um, 100 uM A (first replicate column)
[15] = 100 uM, replicate 3, M. mycetomatis MM55, read-out: Percentage survival at 100um, 100 uM A (third replicate column)
[16] = 25 uM, mean of three replicates, read-out: Percentage survival at 25um, 25 uM mean
[17] = 100 uM, first replicate column, read-out: Percentage survival at 100um, 100 uM A
[18] = 100 uM, mean of three replicates, read-out: Percentage survival at 100um, 100 uM mean
[19] = 100 uM, second replicate column, read-out: Percentage survival at 100um, 100 uM A
[20] = 100 uM, third replicate column, read-out: Percentage survival at 100um, 100 uM A
[21] = 25 uM, mean, read-out: Percentage survival at 25um, 25 uM mean
[22] = 100 uM, mean, read-out: Percentage survival at 100um, 100 uM mean
[23] = 100 uM, replicate (first column), read-out: Percentage survival at 100um, 100 uM A
[24] = 100 uM, replicate (second column), read-out: Percentage survival at 100um, 100 uM A
[25] = 100 uM, replicate (third column), read-out: Percentage survival at 100um, 100 uM A
[26] = 25 uM, mean of replicates, MM55, read-out: Percentage survival at 25um, 25 uM mean
[27] = 25 uM, replicate A, MM55, read-out: Percentage survival at 25um, 25 um A
[28] = 25 uM, replicate B, MM55, read-out: Percentage survival at 25um, 25 uM B
[29] = 25 uM, replicate C, MM55, read-out: Percentage survival at 25um, 25 uM C
[30] = 100 uM, mean of replicates, MM55, read-out: Percentage survival at 100um, 100 uM mean
[31] = 100 uM, replicate 1, MM55, read-out: Percentage survival at 100um, 100 uM A
[32] = 100 uM, replicate 2, MM55, read-out: Percentage survival at 100um, 100 uM A
[33] = 100 uM, replicate 3, MM55, read-out: Percentage survival at 100um, 100 uM A

**Q.** `O=C1NC(=S)N/C1=C\c1cc(Br)cc(Br)c1O` [MMV1578569] was tested. Which activity at 25 µM [1] did it give?
**A.** The activity at 25 µM was 85.5%.

**Q.** And the activity at 25 µM [2]?
**A.** Its activity at 25 µM is 79.8%.

**Q.** What about the activity at 25 µM [3] of the same compound?
**A.** Its activity at 25 µM is 98.7%.

**Q.** And the activity at 25 µM [4]?
**A.** Its activity at 25 µM is 77.8%.

**Q.** And the activity at 100 µM [5]?
**A.** Its activity at 100 µM is 102%.

**Q.** What about the activity at 100 µM [6] of the same compound?
**A.** The activity at 100 µM was 103%.

**Q.** And the activity at 100 µM [7]?
**A.** Its activity at 100 µM is 104%.

**Q.** And the activity at 100 µM [8]?
**A.** The activity at 100 µM was 97.5%.

**Q.** What does the source list for `O=C(Nc1nnc(-c2ccccc2)o1)c1ccc(F)cc1` [MMV1578578]?
**A.** activity at 25 µM [9]: 24.9%; activity at 25 µM [10]: 69.5%; activity at 25 µM [11]: 1.3%; activity at 25 µM [12]: 3.74%; activity at 100 µM [13]: 0.7%; activity at 100 µM [14]: -1.02%; Percent fungal survival at 100 µM (100 uM): 1.69%; activity at 100 µM [15]: 1.43%

**Q.** What does the source list for `C(=C\c1nc2ccccc2[nH]1)/c1ccc2c(c1)OCO2` [MMV1582495]?
**A.** activity at 25 µM [9]: 76.5%; activity at 25 µM [10]: 78.1%; activity at 25 µM [11]: 81.8%; activity at 25 µM [12]: 69.8%; activity at 100 µM [13]: 66.2%; activity at 100 µM [14]: 59.7%; Percent fungal survival at 100 µM (100 uM): 74.5%; activity at 100 µM [15]: 64.2%

**Q.** With `O=C(NC1CCCc2c1[nH]c1ccc(Cl)cc21)c1ccccn1` (centres unmarked) [MMV690621] as the compound, how does the activity at 25 µM [16] read?
**A.** The activity at 25 µM was 79%.

**Q.** What about the activity at 25 µM [2] of the same compound?
**A.** The activity at 25 µM was 75.2%.

**Q.** And the activity at 25 µM [3]?
**A.** The activity at 25 µM was 91.8%.

**Q.** And the activity at 25 µM [4]?
**A.** The activity at 25 µM was 70.2%.

**Q.** And the activity at 100 µM [17]?
**A.** The activity at 100 µM was -4.95%.

**Q.** And the activity at 100 µM [18]?
**A.** The activity at 100 µM was -0.446%.

**Q.** What about the activity at 100 µM [19] of the same compound?
**A.** Its activity at 100 µM is -2.06%.

**Q.** And the activity at 100 µM [20]?
**A.** Its activity at 100 µM is 5.67%.

**Q.** What does the source list for `COc1ccc(SC(=O)N[C@H](CCC(=O)O)C(=O)O)cc1` [MMV1580846]?
**A.** activity at 25 µM [1]: 85%; activity at 25 µM [2]: 78.8%; activity at 25 µM [3]: 91.4%; activity at 25 µM [4]: 84.8%; activity at 100 µM [5]: 45.7%; activity at 100 µM [6]: -2.83%; activity at 100 µM [7]: 55.8%; activity at 100 µM [8]: 84.3%

**Q.** With `C[C@@H](O)[C@H](N)C(=O)NS(=O)(=O)c1cccc(-c2ccc3[nH]ncc3c2)c1` [MMV1582494] as the compound, how does the activity at 25 µM [21] read?
**A.** The activity at 25 µM was 82.4%.

**Q.** And the activity at 25 µM [2]?
**A.** The activity at 25 µM was 91.3%.

**Q.** And the activity at 25 µM [3]?
**A.** The activity at 25 µM was 83.3%.

**Q.** What about the activity at 25 µM [4] of the same compound?
**A.** Its activity at 25 µM is 72.6%.

**Q.** What about the activity at 100 µM [22] of the same compound?
**A.** Its activity at 100 µM is 79.4%.

**Q.** What about the activity at 100 µM [23] of the same compound?
**A.** The activity at 100 µM was 99.3%.

**Q.** What about the activity at 100 µM [24] of the same compound?
**A.** The activity at 100 µM was 66.8%.

**Q.** And the activity at 100 µM [25]?
**A.** The activity at 100 µM was 72.1%.

**Q.** `CC1(C)C[C@H]1C(=O)N/C(=C\CCCCSC[C@@H](N)C(=O)O)C(=O)O` [MMV1613559] was tested. Which “Percentage survival at 100um, 100 uM A” value did it give?
**A.** Its value is 93.1771% and 127.204% and 75.2981%.

**Q.** And the activity at 25 µM (read-out: Percentage survival at 25um, 25 uM B)?
**A.** Its activity at 25 µM is 95.4%.

**Q.** What about the activity at 25 µM (read-out: Percentage survival at 25um, 25 uM C) of the same compound?
**A.** Its activity at 25 µM is 77.8%.

**Q.** What about the activity at 25 µM (read-out: Percentage survival at 25um, 25 uM mean) of the same compound?
**A.** The activity at 25 µM was 92.2%.

**Q.** And the activity at 25 µM (read-out: Percentage survival at 25um, 25 um A)?
**A.** Its activity at 25 µM is 103%.

**Q.** And the activity at 100 µM (read-out: Percentage survival at 100um, 100 uM mean)?
**A.** The activity at 100 µM was 98.6%.

**Q.** `CC1(C)CC(NC(=O)C(=O)Nc2ccc(Cl)cc2)CC(C)(C)N1` [MMV1580501] was tested. Which activity at 25 µM [26] did it give?
**A.** Its activity at 25 µM is 79.5%.

**Q.** And the activity at 25 µM [27]?
**A.** Its activity at 25 µM is 75.9%.

**Q.** And the activity at 25 µM [28]?
**A.** Its activity at 25 µM is 89.4%.

**Q.** And the activity at 25 µM [29]?
**A.** Its activity at 25 µM is 73.3%.

**Q.** What about the activity at 100 µM [30] of the same compound?
**A.** The activity at 100 µM was 74.7%.

**Q.** What about the activity at 100 µM [31] of the same compound?
**A.** The activity at 100 µM was 76.9%.

**Q.** And the activity at 100 µM [32]?
**A.** The activity at 100 µM was 78.1%.

**Q.** What about the activity at 100 µM [33] of the same compound?
**A.** The activity at 100 µM was 69%.

**Q.** For `O=C(NNC(=S)Nc1ccc(Cl)cc1)c1ccncc1` [MMV1782227], which activity at 25 µM [21] is on record?
**A.** Its activity at 25 µM is 85.9%.

**Q.** And the activity at 25 µM [2]?
**A.** Its activity at 25 µM is 105%.

**Q.** And the activity at 25 µM [3]?
**A.** The activity at 25 µM was 86.1%.

**Q.** And the activity at 25 µM [4]?
**A.** The activity at 25 µM was 67%.

**Q.** What about the activity at 100 µM [22] of the same compound?
**A.** Its activity at 100 µM is 121%.

**Q.** What about the activity at 100 µM [23] of the same compound?
**A.** Its activity at 100 µM is 128%.

**Q.** And the activity at 100 µM [24]?
**A.** Its activity at 100 µM is 90.7%.

**Q.** What about the activity at 100 µM [25] of the same compound?
**A.** The activity at 100 µM was 144%.

**Q.** What does the source list for `O=C(Nc1ccc(N2CCN(C(=O)c3ccccc3)CC2)cc1)c1ccc2c(c1)OCO2` [MMV1580505]?
**A.** activity at 25 µM [26]: 104%; activity at 25 µM [27]: 103%; activity at 25 µM [28]: 109%; activity at 25 µM [29]: 101%; activity at 100 µM [30]: 96.7%; activity at 100 µM [31]: 102%; activity at 100 µM [32]: 96.8%; activity at 100 µM [33]: 91.4%

**Q.** `COc1ccc(C2CNC(=O)C2)cc1OC1CCCC1` (centres unmarked) [MMV003738] was tested. Which activity at 25 µM [16] did it give?
**A.** The activity at 25 µM was 84.1%.

**Q.** What about the activity at 25 µM [2] of the same compound?
**A.** Its activity at 25 µM is 73%.

**Q.** And the activity at 25 µM [3]?
**A.** The activity at 25 µM was 88.3%.

**Q.** And the activity at 25 µM [4]?
**A.** The activity at 25 µM was 90.9%.

**Q.** And the activity at 100 µM [17]?
**A.** Its activity at 100 µM is 78.1%.

**Q.** What about the activity at 100 µM [18] of the same compound?
**A.** The activity at 100 µM was 75%.

**Q.** What about the activity at 100 µM [19] of the same compound?
**A.** The activity at 100 µM was 63%.

**Q.** What about the activity at 100 µM [20] of the same compound?
**A.** Its activity at 100 µM is 84%.
